The text below walks through data of ChEMBL document CHEMBL1201862, “PubChem BioAssay data set” (2004).

Holding throughout (assay): NCI-60 cell line screen, 48 h
Test [1] relates to MOLT-4.
Test [2] concerns K562.
Test [3] relates to A549.
Test [4] relates to MDA-N.
In test [5] the test system is T47D.
Test [6] deals with OVCAR-4.
Test [7] concerns PC-3.
The subject of test [8] is BT-549.
Test [9] concerns COLO 205.
In test [10] the test system is ACHN.
The subject of test [11] is OVCAR-5.
Test [12] deals with SNB-19.
The subject of test [13] is HOP-92.
Test [14] concerns UACC-62.
Test [15] concerns NCI-H23.
Test [16] concerns SR.
Test [17] concerns DU-145.
In test [18] the test system is KM12.
Test [19] relates to HCT-116.
For test [20], the system named is UO-31.

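Following 48 hours of exposure in 96-well plates, responses at five concentrations were used to interpolate endpoints linearly. Abbreviation: GI50, concentration required for 50% inhibition of growth.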 The source made the active and inactive calls. Cut-off read from the data, not from the text of the source: active = GI50 up to about 1.1 µM and inactive = higher.

As for `O=S(=O)(O)c1ccc(-c2nnc(-c3ccccn3)nc2-c2ccc(S(=O)(=O)O)o2)o1`, the GI50 in [1], in test [2], in test [3], in test [4], in [5] and in [6] was > 100 µM (inactive) in each case. For the same compound, the GI50 in test [7], in [8], in test [9], in [10], in test [11] and in test [12] was > 100 µM (inactive) each time. The GI50 in test [13], in test [14], in test [15], in [16], in [17] and in test [18] was > 100 µM (inactive) in each case. Besides, the GI50 in test [19] and in test [20] was > 100 µM (inactive) in each case.

In the case of `COc1ccc(C2CCc3nc4nc(N)nc(N)c4cc3C2)cc1` (configuration not stated), the GI50 in test [1] was 22.1 µM (inactive); in test [2], 16.4 µM (inactive); in test [3], 39.3 µM (inactive); in [4] it was 38.3 µM (inactive); in test [5], 21 µM (inactive); in test [6] it was 22.8 µM (inactive). For the same compound, the GI50 in [7] was 85.1 µM (inactive); in test [8] it was 25.5 µM (inactive); in [9], 40.3 µM (inactive); in test [10] it was 6.64 µM (inactive); in test [11] it was > 100 µM (inactive); in [12], 6.65 µM (inactive). Further, the GI50 is 1.2 µM (inactive) in [13]; 31.5 µM (inactive) in test [14]; 24.3 µM (inactive) in [16]; 39.7 µM (inactive) in test [17]; 30.8 µM (inactive) in [18]; 26 µM (inactive) in test [19].

As to `O=c1[nH]c2nc3ccccc3c(=O)n2/c1=C/c1cccs1`, the GI50 is > 100 µM (inactive) in test [1]; > 100 µM (inactive) in [2]; > 100 µM (inactive) in test [3]; > 100 µM (inactive) in test [4]; 69.7 µM (inactive) in test [5]; > 100 µM (inactive) in test [6]. Besides, the GI50 in [7], in [8], in [9], in test [10], in test [11] and in test [12] was > 100 µM (inactive) each time. The GI50 in test [13] was 87.7 µM (inactive); in [14], > 100 µM (inactive); in test [15], > 100 µM (inactive); in [16] it was > 100 µM (inactive); in test [17] it was > 100 µM (inactive); in test [18] it was 70.3 µM (inactive). Besides, the GI50 in [19] and in [20] was > 100 µM (inactive) each time.

Turning to `O=[N+]([O-])c1ccc2nc3ccc([N+](=O)[O-])cn3c2c1`, the GI50 is > 100 µM (inactive) in [1]; > 100 µM (inactive) in test [2]; 39.1 µM (inactive) in [3]; > 100 µM (inactive) in [4]; > 100 µM (inactive) in [5]; 29.1 µM (inactive) in [6]. The GI50 in test [7] was > 100 µM (inactive); in test [8], > 100 µM (inactive); in [9], > 100 µM (inactive); in test [10] it was > 100 µM (inactive); in test [11], 32.5 µM (inactive); in test [12], 36.1 µM (inactive). In addition, the GI50 in test [13] was > 100 µM (inactive); in test [14], 86.3 µM (inactive); in test [15] it was > 100 µM (inactive); in test [16], > 100 µM (inactive); in test [17], 39.2 µM (inactive); in [18] it was > 100 µM (inactive). Further, the GI50 in [19] is 33.4 µM (inactive); in test [20], 29.9 µM (inactive).

As for `CC(C)Cn1cnc2c(NCC(C)O)nc3ccccc3c21` (configuration not stated), the GI50 was 63.2 µM (inactive) in [1]; 61.4 µM (inactive) in test [2]; > 100 µM (inactive) in test [3]; > 100 µM (inactive) in [4]; > 100 µM (inactive) in test [5]; > 100 µM (inactive) in test [6]. The GI50 in test [7] is 87.7 µM (inactive); in [8], > 100 µM (inactive); in test [9], 51.1 µM (inactive); in test [10], 41.1 µM (inactive); in test [11] it was > 100 µM (inactive); in test [12] it was > 100 µM (inactive). Moreover, the GI50 in test [13] is 27.9 µM (inactive); in test [14], 52.2 µM (inactive); in [15] it was > 100 µM (inactive); in test [16], 84.5 µM (inactive); in [17] it was 89.5 µM (inactive); in [18] it was > 100 µM (inactive). The values for the GI50 in test [19] and in test [20] were 42.5 µM (inactive) and 38.9 µM (inactive), respectively.

Turning to `COc1ccc(C2=C(N)c3c(OC)cccc3C2=O)cc1`, the GI50 in test [1], in [2], in test [4], in [5], in test [6] and in test [7] was > 100 µM (inactive) throughout. Also, the GI50 was 48.6 µM (inactive) in [8]; > 100 µM (inactive) in test [9]; > 10 µM (inactive) in test [10]; > 100 µM (inactive) in test [11]; > 100 µM (inactive) in test [12]; > 10 µM (inactive) in [13]. In addition, the GI50 in test [14], in test [15], in [16], in test [17], in test [18] and in [19] was > 100 µM (inactive) in each case. For the same compound, the GI50 in [20] was > 100 µM (inactive).

`c1ccc(-c2nn(-c3ccccc3)[n+](-c3ccccc3)n2)cc1` [TETRAZOLIUM RED]: the GI50 in test [1] was 19.1 µM (inactive); in [2], 18.6 µM (inactive); in test [3], 23.9 µM (inactive); in test [4], 12.9 µM (inactive); in test [5] it was > 100 µM (inactive); in test [6] it was 2.01 µM (inactive). Besides, the GI50 is 3.83 µM (inactive) in [7]; > 50.5 µM (inactive) in test [8]; > 78 µM (inactive) in test [10]; 35.7 µM (inactive) in test [11]; > 35.6 µM (inactive) in test [12]; 24.1 µM (inactive) in [13]. Moreover, the GI50 was 13.8 µM (inactive) in test [14]; 7.29 µM (inactive) in test [15]; 3.37 µM (inactive) in test [16]; > 48.5 µM (inactive) in test [17]; 11.3 µM (inactive) in test [18]; 6.5 µM (inactive) in [19]. The GI50 in test [20] was > 100 µM (inactive).

Consider `CC(=O)N1N=C(c2c(O)ccc3ccccc23)CC1C(=O)c1ccco1` (configuration not stated), for which the GI50 is 13.2 µM (inactive) in [1]; 16.9 µM (inactive) in test [2]; 28.2 µM (inactive) in [3]; 23.9 µM (inactive) in test [4]; 39.8 µM (inactive) in test [5]; 36 µM (inactive) in test [6]. In addition, the GI50 in test [7] was 23 µM (inactive); in test [8], 18.4 µM (inactive); in test [9] it was 24.7 µM (inactive); in test [10], 33 µM (inactive); in test [11], 55 µM (inactive); in test [13], 52.7 µM (inactive). Further, the GI50 in [14] was 16.4 µM (inactive); in test [15] it was 22.2 µM (inactive); in test [16], 13.6 µM (inactive); in test [17] it was 47.4 µM (inactive); in [18], 28.1 µM (inactive); in test [19], 20.4 µM (inactive). Further, the GI50 in test [20] was 21.6 µM (inactive).

In the case of `CCOC(=O)c1nc2ccccc2nc1Oc1cc(OC)c(OC)c(OC)c1`, the GI50 in [1], in test [3], in test [4], in [5], in test [6] and in test [7] was > 100 µM (inactive) throughout. Further, the GI50 in [8] was > 100 µM (inactive); in test [9], > 100 µM (inactive); in [10] it was 46.9 µM (inactive); in test [11], > 100 µM (inactive); in test [12] it was > 100 µM (inactive); in test [13], 47.6 µM (inactive). The GI50 in test [14] was > 100 µM (inactive); in test [15] it was 87.3 µM (inactive); in [16], > 100 µM (inactive); in test [17] it was > 100 µM (inactive); in test [18] it was > 100 µM (inactive); in test [19], > 100 µM (inactive). Moreover, in test [20], the GI50 is > 100 µM (inactive).

`Cc1cc(S(=O)(=O)N/C(=C(\C#N)C(=O)c2ccc(Cl)cc2)[n+]2ccc(N(C)C)cc2)c([S-])cc1Cl`: the GI50 in [1] was > 100 µM (inactive); in [2], 53.2 µM (inactive); in test [3], 37.6 µM (inactive); in [4], > 100 µM (inactive); in test [5], > 100 µM (inactive); in [6], 40.9 µM (inactive). The GI50 in [7] is 36.6 µM (inactive); in [8] it was > 100 µM (inactive); in test [9], > 100 µM (inactive); in test [10], > 100 µM (inactive); in test [11], 66.5 µM (inactive); in [13] it was < 0.01 µM (active). In addition, the GI50 was > 100 µM (inactive) in [14]; 41.3 µM (inactive) in [16]; > 100 µM (inactive) in test [17]; > 100 µM (inactive) in [18]; 19.8 µM (inactive) in test [19]; > 100 µM (inactive) in [20].
